Experimental findings from ChEMBL document CHEMBL1157104 (J Med Chem, 2010) are described below.

The structures appear in SMILES notation. pKd: −log10 of the molar value.

In assay [1] the target is T1, Progesterone receptor (Homo sapiens) (UniProt P06401).
T1 sequence (whole entry): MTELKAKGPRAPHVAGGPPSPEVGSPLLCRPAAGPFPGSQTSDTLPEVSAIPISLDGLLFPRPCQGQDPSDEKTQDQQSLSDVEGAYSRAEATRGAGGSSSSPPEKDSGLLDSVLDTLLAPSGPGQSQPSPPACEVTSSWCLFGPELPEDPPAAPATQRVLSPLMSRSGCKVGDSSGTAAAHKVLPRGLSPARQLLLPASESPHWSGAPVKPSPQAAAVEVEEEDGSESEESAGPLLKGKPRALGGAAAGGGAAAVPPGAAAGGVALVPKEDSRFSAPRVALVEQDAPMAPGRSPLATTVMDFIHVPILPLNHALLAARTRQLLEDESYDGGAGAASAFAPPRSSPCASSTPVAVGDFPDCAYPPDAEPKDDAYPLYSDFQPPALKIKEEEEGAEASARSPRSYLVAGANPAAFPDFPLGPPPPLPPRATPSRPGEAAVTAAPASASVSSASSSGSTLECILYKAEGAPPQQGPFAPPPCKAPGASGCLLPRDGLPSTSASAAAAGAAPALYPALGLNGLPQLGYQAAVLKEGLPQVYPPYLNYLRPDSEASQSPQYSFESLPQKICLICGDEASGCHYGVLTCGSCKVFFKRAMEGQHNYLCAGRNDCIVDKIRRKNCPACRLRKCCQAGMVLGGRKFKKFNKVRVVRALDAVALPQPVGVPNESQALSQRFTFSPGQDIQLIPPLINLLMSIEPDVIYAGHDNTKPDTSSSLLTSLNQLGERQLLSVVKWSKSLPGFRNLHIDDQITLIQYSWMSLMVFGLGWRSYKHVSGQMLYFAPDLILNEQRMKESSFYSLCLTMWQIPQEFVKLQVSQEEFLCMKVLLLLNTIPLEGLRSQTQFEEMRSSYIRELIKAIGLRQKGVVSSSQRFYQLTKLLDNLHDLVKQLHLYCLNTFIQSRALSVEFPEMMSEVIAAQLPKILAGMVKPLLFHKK
The assay can be described thus: Binding affinity to progesterone receptor relative to R5020.

The target of assay [2] is T2, Progesterone receptor (Homo sapiens, UniProt P06401).
T2 sequence (P06401 whole entry): T1 sequence (whole entry)
The assay is described as follows: Binding affinity to progesterone receptor.

In assay [1], `CC1(C)OC(=S)Nc2ccc(-c3ccc(C#N)n3CCCF)cc21` came in with a relative binding affinity (RBA) of 0.99.

For `CCC(=O)[C@@]1(C)CC[C@H]2[C@@H]3CCC4=CC(=O)CCC4=C3CC[C@@]21C` [PROMEGESTONE], the pKd in assay [2] is 9.40.

Turning to `CC1(C)OC(=S)Nc2ccc(-c3ccc(C#N)n3CCF)cc21`, the relative binding affinity (RBA) in assay [1] was determined as 18.5.

By pKd is commonly meant the negative decadic logarithm of the Kd, by convention in mol/L. A high value points to a low Kd.
